Measured values: patent publication US20100197714A1, “SPIRO-PYRANO-PYRAZOLE DERIVATIVES” (priority 2007, published 2010)

Legend:
[1] = target: T1, σ2-receptor (Rattus norvegicus, UniProt Q5U3Y7); experiment: Sigma 2 (Version B) radioligand binding, [3H]-ditolylguanidine, rat liver preparation, σ1 sites masked with (+)-pentazocine; settings: for inhibition at 1 µM: compound at 1 μM; for Ki: [3H]-ditolylguanidine 3 nM
T1 construct: the σ2-Receptorpreparation was prepared from rat liver; from tissue; host or cells: rat liver membrane homogenate
T1 sequence (Q5U3Y7 1-176): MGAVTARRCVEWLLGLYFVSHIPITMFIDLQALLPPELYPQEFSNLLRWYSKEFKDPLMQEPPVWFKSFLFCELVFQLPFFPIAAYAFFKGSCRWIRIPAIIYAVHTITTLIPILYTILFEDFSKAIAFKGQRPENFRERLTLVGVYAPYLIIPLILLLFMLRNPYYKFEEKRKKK
Protocol: In brief the σ2-Receptorpreparation was prepared from rat liver. The livers were homogenized in 5 to 6 times of volume sucrose solution (0.32M) and homogenized. The homogenate was centrifuged at 2900 rpm, 4° C., 10 min). the supernatant was centrifuged again (31000×g, 4° C., 20 min). The pellet was resuspended in TRIS-buffer, incubated for 30 min at room temperature while stirring and centrifuged f (31000×g, 4° C., 20 min). The pellet was resuspended in cold TRIS-buffer pH 8 and homogenized. Then the protein content was measured (approx. 2 mg/mL) and the homogenate frozen at −80° C. for later use.
The radioligand used was [^3H]-Ditolylguanidin in TRIS-buffer pH 8. The σ1-receptor binding sites were masked through (+)-Pentazocin-solution in TRIS-Puffer pH 8.
In a volume of 200 μL 50 μL compound solution of varying concentration, 50 μL (+)-Pentazocin-solution (2 μM; resulting in 500 nM in the assay), 50 μL radioligand-solution (12 nM; resulting in 3 nM in the assay) and finally 50 μL of receptor preparation (approx. 2 mg/mL) were given into a well of a microplate equipped with a filter. The plate was closed and stirred for 2 h at room temperature and 500 rpm. Following that the solvents were removed by a harvester through the filter. After rinsing with H2O the filter was measured in a scintillation counter ([^3H]-protocol).

[2] = target: T2, σ1-receptor (Cavia porcellus, UniProt Q60492); experiment: Sigma 1 (Version B) radioligand binding, [3H]-(+)-pentazocine, guinea pig brain preparation; design: the σ1-receptor preparation was prepared from guinea pig brain; from tissue; host or cells: guinea pig brain membrane homogenate
Protocol: In brief the σ1-receptor preparation was prepared from guinea pig brain. The brains were homogenized in 5 to 6 times of volume sucrose solution (0.32M) and homogenized. The homogenate was centrifuged at 2900 rpm, 4° C., 10 min). the supernatant was centrifuged again (23500×g, 4° C., 20 min). The pellet was resuspended in Tris-buffer, incubated for 30 min at room temperature and centrifuged f (23500×g, 4° C., 20 min). The pellet was resuspended in cold TRIS-buffer and homogenized. Then the protein content was measured (approx. 1.5 mg/mL) and the homogenate frozen at −80° C. for later use.
The radioligand used was […]-(+)-Pentazocin in TRIS-buffer. In a volume of 200 μL 50 μL TRIS-buffer, 50 μL compound solution of varying concentration, 50 μL radioligand-solution (8 nM; resulting in 2 nM in the assay) and finally 50 μL of receptor preparation (approx. 1.5 mg/mL) were given into a well of a microplate equipped with a filter. The plate was closed and stirred for 2.5 h at 37° C. and 500 rpm. Following that the solvents were removed by a harvester through the filter. After rinsing with H2O the filter was measured in a scintillation counter ([^3H]-protocol).

[3] = target: T2, σ1-receptor; experiment: Sigma-1 (Version A) radioligand binding, [3H](+)-pentazocine, guinea pig brain membranes
Protocol: Brain membrane preparation and binding assays for the σ1-receptor were performed as described (DeHaven-Hudkins et al., 1992) with some modifications. In brief, guinea pig brains were homogenized in 10 vols. […] The homogenate was centrifuged at 1000 g for 10 min at 4° C. and the supernatants collected and centrifuged again at 48000 g for 15 min at 4° C.
Each assay tube contained 10 μL of [^3H](+)-pentazocine (final concentration of 0.5 nM), 900 μL of the tissue suspension to a final assay volume of 1 mL and a final tissue concentration of approximately 30 mg tissue net weight/mL. […] All tubes were incubated at 37° C. for 150 min before termination of the reaction by rapid filtration over Schleicher & Schuell GF 3362 glass fibre filters [previously soaked in a solution of 0.5% polyethylenimine for at least 1 h]. […] Following addition of scintillation cocktail, the samples were allowed to equilibrate overnight. The amount of bound radioactivity was determined by liquid scintillation spectrometry using a Wallac Winspectral 1414 liquid scintillation counter.

[4] = version B, guinea pig brain, [3H]-(+)-pentazocine 2 nM, read-out: Binding σ1 Ki

T2 sequence (Q60492 whole entry): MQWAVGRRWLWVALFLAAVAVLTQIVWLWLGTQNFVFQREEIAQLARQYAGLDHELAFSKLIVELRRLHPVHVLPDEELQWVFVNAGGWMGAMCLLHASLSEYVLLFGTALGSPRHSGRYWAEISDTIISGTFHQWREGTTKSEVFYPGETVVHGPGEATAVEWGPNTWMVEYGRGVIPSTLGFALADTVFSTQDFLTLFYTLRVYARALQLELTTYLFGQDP

SMILES | inhibition at 1 µM [1] | Ki [2] | Ki [1] | Ki [2, 4] | Ki [3]
COC1Cc2c(cnn2-c2ccccc2)C2(CCN(Cc3ccccc3)CC2)O1 (stereo not drawn) [Example 5, 1-Benzyl-6′-methoxy-1′-phenyl-6′,7′-dihydro-1′H-spiro[piperidin-4,4′-pyrano[4,3-c]pyrazole]] | 22% | 1.46 nM |  |  | 
OC1Cc2c(cnn2-c2ccccc2)C2(CCN(Cc3ccccc3)CC2)O1 (stereo not drawn) [Example 32, 1-Benzyl-1′-phenyl-6′,7′-dihydro-1′H-spiro[piperidin-4,4′-pyrano[4,3-c]pyrazole]-6′-ol] | 41% | 27.1 nM |  |  | 
Cn1ncc2c1CCOC21CCN(Cc2ccccc2)CC1 [Example 30, 1-Benzyl-1′-methyl-6′,7′-dihydro-1′H-spiro[piperidin-4,4′-pyrano[4,3-c]pyrazole]] |  | 9.18 nM | 191 nM |  | 
COC1OC2(CCNCC2)c2cnn(-c3ccccc3)c21 (stereo not drawn) [Example 2, 6′-Methoxy-1′-phenyl-4′,6′-dihydro-1′H-spiro[piperidin-4,4′-furo[3,4-c]pyrazole]] | 12% |  |  | 1200 nM | 
CCCCN1CCC2(CC1)OC(OC)c1c2cnn1-c1ccccc1 (stereo not drawn) [Example 4, 1-Butyl-6′-methoxy-1′-phenyl-4′,6′-dihydro-1′H-spiro[piperidin-4,4′-furo[3,4-c]pyrazole]] |  |  | 1050 nM | 1.28 nM | 1.2 nM
CCCN1CCC2(CC1)OC(OC)Cc1c2cnn1C (stereo not drawn) [Example 27, 6′-Methoxy-1′-methyl-1-propyl-6′,7′-dihydro-1′H-spiro[piperidin-4,4′-pyrano[4,3-c]pyrazole]] | 0% |  |  |  | 
COC1Cc2c(cnn2-c2ccccc2)C2(CCN(CCCc3ccccc3)CC2)O1 (stereo not drawn) [Example 17, 6′-Methoxy-1′-phenyl-1-(3-phenylpropyl)-6′,7′-dihydro-1′H-spiro[piperidin-4,4′-pyrano[4,3-c]pyrazole]] |  | 3.24 nM | 833 nM |  | 
COC1Cc2c(cnn2C)C2(CCN(CCC(C)C)CC2)O1 (stereo not drawn) [Example 26, 1-Isopentyl-6′-methoxy-1′-methyl-6′,7′-dihydro-1′H-spiro[piperidin-4,4′-pyrano[4,3-c]pyrazole]] | 22% | 17.8 nM |  |  | 
c1ccc(CCCN2CCC3(CC2)OCCc2c3cnn2-c2ccccc2)cc1 [Example 37, 1-Phenylpropyl-1′-phenyl-6′,7′-dihydro-1′H-spiro[piperidin-4,4′-pyrano[4,3-c]pyrazole]] |  |  | 102 nM |  | 
C1=Cc2c(cnn2-c2ccccc2)C2(CCN(Cc3ccccc3)CC2)O1 [Example 33, 1-Benzyl-1′-phenyl-1′H-spiro[piperidin-4,4′-pyrano[4,3-c]pyrazole]] |  | 1.48 nM | 557 nM |  | 
COC1Cc2c(cnn2C)C2(CCN(Cc3ccc(F)cc3)CC2)O1 (stereo not drawn) [Example 25, 1-(4-Fluorbenzyl)-6′-methoxy-1′-methyl-6′,7′-dihydro-1′H-spiro[piperidin-4,4′-pyrano[4,3-c]pyrazole]] | 46% | 21.1 nM |  |  | 
COC1Cc2c(cnn2-c2ccccc2)C2(CCN(C(C)C)CC2)O1 (stereo not drawn) [Example 8, 1-Isopropyl-6′-methoxy-1′-phenyl-6′,7′-dihydro-1′H-spiro[piperidin-4,4′ pyrano[4,3-c]pyrazole]] |  |  | 3210 nM |  | > 100 nM
CCCCCN1CCC2(CC1)OC(OC)Cc1c2cnn1-c1ccccc1 (stereo not drawn) [Example 11, 6′-Methoxy-1-pentyl-1′-phenyl-6′,7′-dihydro-1′H-spiro[piperidin-4,4′-pyrano[4,3-c]pyrazole]] |  | 0.82 nM | 340 nM |  | 
CC(C)CCN1CCC2(CC1)OCCc1c2cnn1C [Example 39, 1-Isopentyl-1′-methyl-6′,7′-dihydro-1′H-spiro[piperidin-4,4′-pyrano[4,3-c]pyrazole]] | 27% |  |  | 29.9 nM | 
CC(C)=CCN1CCC2(CC1)OCCc1c2cnn1-c1ccccc1 [Example 36, 1-(Methylbut-2-en-1-yl)-1′-phenyl-6′,7′-dihydro-1′H-spiro[piperidin-4,4′-pyrano[4,3-c]pyrazole]] |  | 0.97 nM | 269 nM |  | 
COc1ccc(CN2CCC3(CC2)OC(OC)Cc2c3cnn2-c2ccccc2)cc1 (stereo not drawn) [Example 20, 6′-Methoxy-1-(4-methoxybenzyl)-1′-phenyl-6′,7′-dihydro-1′H-spiro[piperidin-4,4′-pyrano[4,3-c]pyrazole]] |  | 1.54 nM | 925 nM |  | 
Cn1ncc2c1CC(O)OC21CCN(Cc2ccccc2)CC1 (stereo not drawn) [Example 28, 1-Benzyl-1′-methyl-6′,7′-dihydro-1′H-spiro[piperidin-4,4′-pyrano[4,3-c]pyrazole]-6′-ol] | 21% | 190 nM |  |  | 
CC(C)=CCN1CCC2(CC1)OCCc1c2cnn1C [Example 40, 1-(Methylbut-2-en-1-yl)-1′-methyl-6′,7′-dihydro-1′H-spiro[piperidin-4,4′-pyrano[4,3-c]pyrazole]] | 49% |  |  |  | 
COC1Cc2c(cnn2-c2ccccc2)C2(CCN(CCc3ccccc3)CC2)O1 (stereo not drawn) [Example 16, 6′-Methoxy-1′-phenyl-1-(2-phenylethyl)-6′,7′-dihydro-1′H-spiro[piperidin-4,4′-pyrano[4,3-c]pyrazole]] |  | 2.73 nM | 570 nM |  | 
COC1Cc2c(cnn2C)C2(CCN(Cc3ccccc3)CC2)O1 (stereo not drawn) [Example 22, 1-Benzyl-6′-methoxy-1′-methyl-6′,7′-dihydro-1′H-spiro[piperidin-4,4′-pyrano[4,3-c]pyrazole]] | 0% | 21.4 nM |  |  | 
COC1Cc2c(cnn2-c2ccccc2)C2(CCN(CC(C)C)CC2)O1 (stereo not drawn) [Example 10, 1-Isobutyl-6′-methoxy-1′-phenyl-6′,7′-dihydro-1′H-spiro[piperidin-4,4′-pyrano[4,3-c]pyrazole]] |  |  | 933 nM |  | 9.4 nM
c1ccc(-n2ncc3c2CCOC32CCN(CC3CCCCC3)CC2)cc1 [Example 38, 1-(Cyclohexan-1-ylmethyl)-1-phenyl-6′,7′-dihydro-1′H-spiro[piperidin-4,4′-pyrano[4,3-c]pyrazole]] |  |  | 42.8 nM | 0.43 nM | 
c1ccc(CN2CCC3(CC2)OCCc2c3cnn2-c2ccccc2)cc1 [Example 34, 1-Benzyl-1′-phenyl-6′,7′-dihydro-1′H-spiro[piperidin-4,4′-pyrano[4,3-c]pyrazole]] |  | 1.71 nM | 773 nM |  | 
CCCCN1CCC2(CC1)OC(OC)Cc1c2cnn1-c1ccccc1 (stereo not drawn) [Example 9, 1-Butyl-6′-methoxy-1′-phenyl-6′,7′-dihydro-1′H-spiro[piperidin-4,4′-pyrano[4,3-c]pyrazole]] |  | 8.04 nM | 752 nM |  | 
COC1OC2(CCN(Cc3ccccc3)CC2)c2cnn(-c3ccccc3)c21 (stereo not drawn) [Example 3, 1-Benzyl-6′-methoxy-1′-phenyl-4′,6′-dihydro-1′H-spiro[piperidin-4,4′-furo[3,4-c]pyrazole]] |  |  | 1750 nM |  | 2.7 nM
COC1Cc2c(cnn2C)C2(CCN(CCCc3ccccc3)CC2)O1 (stereo not drawn) [Example 24, 6′-Methoxy-1′-methyl-1-(3-phenylpropyl)-6′,7′-dihydro-1′H-spiro[piperidin-4,4′-pyrano[4,3-c]pyrazole]] |  | 92.7 nM | 1730 nM |  | 
Cn1ncc2c1C=COC21CCN(Cc2ccccc2)CC1 [Example 29, 1-Benzyl-1′-methyl-1′H-spiro[piperidin-4,4′-pyrano[4,3-c]pyrazole]] |  | 11.8 nM | 429 nM |  | 
CC(C)CCN1CCC2(CC1)OCCc1c2cnn1-c1ccccc1 [Example 35, 1-Isopentyl-1′-phenyl-6′,7′-dihydro-1′H-spiro[piperidin-4,4′-pyrano[4,3-c]pyrazole]] |  |  | 83.3 nM | 0.98 nM | 
Cn1ncc2c1CCOC21CCN(CCCc2ccccc2)CC1 [Example 41] |  |  | 1070 nM | 17.4 nM | 
CCCN1CCC2(CC1)OC(OC)Cc1c2cnn1-c1ccccc1 (stereo not drawn) [Example 7, 6′-Methoxy-1′-phenyl-1-propyl-6′,7′-dihydro-1′H-spiro[piperidin-4,4′-pyrano[4,3-c]pyrazole]] |  |  | 3030 nM |  | 
